What was measured:
Type in all cases: in vivo
[1] = system: sorghum; experiment: Comprehensive test on growth regulation for sorghum by thidiazuron combined with brassinolide (plant height, stem diameter, 1000-grain weight, yield); conditions: mixtures 4.3 mg/kg, thidiazuron 4 mg/kg
Procedure: (§1) 1. Comprehensive Test on Growth Regulation for Sorghum by Thidiazuron Combined with Brassinolide
(§2) The thidiazuron and brassinolide were diluted with acetone to give a series of concentrations, and the stems and leaves of crops were sprayed to determine the effect of each concentration on crop growth in the field, so as to make a comprehensive evaluation with respect to the plant height and diameter, the root length, the disease resistance, the quality of fruits, and the yield.
Plant height control rate=(Plant height in water control group-Plant height in treatment group)/Plant height in water control group*100%
Stem diameter increase rate=(Stem diameter in water control group-Stem diameter in treatment group)/Stem diameter in water control group*100%
Increase rate in 1000-grain weight=(1000-grain weight in water control group−1000-grain weight in treatment group)/1000-grain weight in water control group*100%
Increase rate in yield per mu=(Yield per mu in water control group−Yield per mu in treatment group)/Yield per mu in water control group*100%

[2] = system: leaf blight of sorghum; experiment: Disease index and prevention effect on leaf blight in the sorghum comprehensive test; conditions: early tasselling stage, mixtures 4.3 mg/kg, thidiazuron 4 mg/kg, brassinolide 0.3 mg/kg
Procedure: as §1, §2
Prevention effect=(Disease index in water control group-Disease index in treatment group)/Disease index in water control group*100%

[3] = system: oat; experiment: Comprehensive field test on growth regulation and yield increase for oat by thidiazuron combined with brassinolide; conditions: Examples 5.4 mg/kg, thidiazuron 5.0 mg/kg, brassinolide 0.4 mg/kg
From the text: (§3) 1. Comprehensive Test on Growth Regulation, Disease Resistance, and Yield Increase for Oat by Thidiazuron Combined with Brassinolide in Field
(§4) Application time: filling stage of oat, because diseases such as powdery mildew easily take place during the earing period.
(§5) Time of application: 1. Formulation examples of the present invention were sprayed, and the results were an average of three replicates.

[4] = system: powdery mildew of oat; experiment: Disease index and prevention effect on powdery mildew in the oat field test; conditions: Examples 5.4 mg/kg, thidiazuron 5.0 mg/kg, brassinolide 0.4 mg/kg
From the text: as §3, §4, §5

[5] = early tasselling stage, vs water control, brassinolide 0.3 mg/kg
[6] = maturity and harvest period, brassinolide 0.3 mg/kg
[7] = maturity and harvest period, vs water control, brassinolide 0.3 mg/kg

O=C(Nc1ccccc1)Nc1cnns1 [Thidiazuron, thidiazuron]
Plant height ([1]; early tasselling stage, 2 sprays on stems and leaves, 8 days apart, brassinolide 0.3 mg/kg (active ingredient)): 120.4 cm | Stem diameter ([1]; early tasselling stage, brassinolide 0.3 mg/kg): 2.56 cm | Control rate (plant height) [1, 5]: 3.4% | Increase rate (stem diameter) [1, 5]: 2.4% | Weight of 1000 grains [1, 6]: 22.1 | Yield [1, 6]: 555.8 kg/667M^2 | Increase rate (weight of 1000 grains) [1, 7]: 3.6% | Increase rate (yield per mu) [1, 7]: 3.5% | Disease index of leaf blight [2]: 10.4 | Prevention effect (leaf blight) ([2]; vs water control): 24.1% | Plant height ([3]; 1 spray at filling stage, average of three replicates): 120.1 cm | Stem diameter [3]: 2.38 mm | Weight of 1000 grains [3]: 35.73 | Yield [3]: 627.3 667M2 | Control rate (plant height) ([3]; vs water control): 4.5% | Increase rate (stem diameter) ([3]; vs water control): 3.2% | Increase rate (weight of 1000 grains) ([3]; vs water control): 4.2% | Increase rate (yield) ([3]; vs water control): 4.3% | Disease index of powdery mildew [4]: 13.16 | Prevention effect (powdery mildew) ([4]; vs water control): 13.3%

Reference: US20180325115A1, “PLANT GROWTH REGULATOR COMPOSTION HAVING SYNERGISTIC EFFECT” (JIANGSU HUIFENG BIO AGRICULTURE CO., LTD., priority 2015, published 2018)
